Data reported in US20130065936A1, “MODULATION OF BIOACTIVE EPOXY-FATTY ACID LEVELS BY PHOSPHODIESTERASE INHIBITORS” (THE REGENTS OF THE UNIVERSITY OF CALIFORNIA, priority 2010, published 2013).

Legend:
Sprague-Dawley rats [1] = assay: Acute nociceptive responses in healthy rats, Hargreaves thermal withdrawal latency; type: in vivo, rat; details: for antagonism of / interaction with rolipram-produced increase in thermal withdrawal latency: Hargreaves, celecoxib 20, fluconazole 40, micanozole 40, finasteride 10, picrotoxin 0.25 mg/kg
[2] = system: endogenous oxylipin sEH substrates and products in rat plasma; assay: Oxylipin analysis in rat plasma after sEHI / PDE inhibitor administration (LC-ESI-MS/MS); type: in vivo; details: rat plasma 45 min after s.c.; 1 mg/kg, pentoxyphilline 10 mg/kg;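 also: plasma from tail vein blood, oxylipins quantified by LC-ESI-MS/MS against deuterated internal standards following solid-phase extraction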
sEH = biological target: T1, sEH (Homo sapiens, UniProt P34913); assay: sEH inhibition as stated in the general description (earlier tests, '506 patent); type: biochemical
T1 sequence (P34913 1-555): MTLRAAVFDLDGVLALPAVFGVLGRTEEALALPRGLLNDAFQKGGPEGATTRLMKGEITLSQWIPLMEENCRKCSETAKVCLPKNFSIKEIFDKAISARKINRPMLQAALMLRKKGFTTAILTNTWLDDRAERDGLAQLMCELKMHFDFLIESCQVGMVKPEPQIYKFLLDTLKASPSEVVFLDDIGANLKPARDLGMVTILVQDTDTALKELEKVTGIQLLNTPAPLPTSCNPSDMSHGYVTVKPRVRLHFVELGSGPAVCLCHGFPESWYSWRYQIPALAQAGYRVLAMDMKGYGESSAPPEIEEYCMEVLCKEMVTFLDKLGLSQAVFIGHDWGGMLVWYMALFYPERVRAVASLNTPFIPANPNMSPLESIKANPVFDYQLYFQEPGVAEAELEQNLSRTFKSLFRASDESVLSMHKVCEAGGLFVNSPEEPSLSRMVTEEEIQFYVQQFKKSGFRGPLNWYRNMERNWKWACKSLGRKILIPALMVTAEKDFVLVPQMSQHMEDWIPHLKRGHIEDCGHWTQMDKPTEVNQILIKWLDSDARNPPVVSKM

Sprague-Dawley rats [3] = assay: Open field activity; type: in vivo, rat; details: 1 h following administration
Procedure: For the measurement of open field activity animals were placed in an acrylic chamber (40×40×20 cm length×width×height) divided into 100 cm^2 (10×10 cm) sections. The number of crossings were recorded when both hind paws crossed into a neighboring cell.

Sprague-Dawley rats [4] = assay: Acute nociceptive responses in healthy rats, Randall-Selitto mechanical sensitivity assay; type: in vivo, rat; details: picrotoxin 0.25 mg/kg s.c.

In the case of Clc1ccc(COC(Cn2ccnc2)c2ccc(Cl)cc2Cl)c(Cl)c1 (stereo not drawn) [micanozole], the “antagonism of / interaction with rolipram-produced increase in thermal withdrawal latency” value (Sprague-Dawley rats [1]) is reported as “lack of antagonism”.
For CN(C(=O)CCCOc1ccc2[nH]c(=O)ccc2c1)C1CCCCC1 [Cilostamide], the “8(9)-EpETE” value [2] was 0.74 nM, the “8(9)-EpETrE” value [2] was 3.13 nM and the “8,9-DiHETE” value [2] was 0.27 nM. The “8,9-DiHETrE” value [2] was 0.47 nM, the “9(10)-EpOME” value [2] was 32.41 nM and the “9,10-DiHOME” value [2] was 29.53 nM. For the same molecule, the “10(11)-EpDPE” value [2] was 4.06 nM, the “10,11-DiHDPE” value [2] was 0.66 nM and the “11(12)-EpETE” value [2] was 0.45 nM. For the same molecule, the “11(12)-EpETrE” value [2] was 4.44 nM, the “11,12-DiHETE” value [2] was 0.43 nM and the “11,12-DiHETrE” value [2] was 1.60 nM. The “12(13)-EpOME” value [2] was 51.82 nM, the “12,13-DiHOME” value [2] was 37.98 nM and the “13(14)-EpDPE” value [2] was 2.23 nM. The “13,14-DiHDPE” value [2] was 0.73 nM, the “14(15)-EpETE” value [2] was 0.49 nM and the “14(15)-EpETrE” value [2] was 7.71 nM. For the same molecule, the “14,15-DiHETE” value [2] was 1.24 nM, the “14,15-DiHETrE” value [2] was 1.82 nM and the “16(17)-EpDPE” value [2] was 2.94 nM. For the same molecule, the “16,17-DiHDPE” value [2] was 2.28 nM, the “17(18)-EpETE” value [2] was 2.66 nM and the “17,18-DiHETE” value [2] was 3.08 nM. For the same molecule, the “19(20)-EpDPE” value [2] was 8.95 nM, the “19,20-DiHDPE” value [2] was 5.50 nM and the “Ratio 8(9)-EpETE / 8,9-DiHETE” value [2] was 2.81. For the same molecule, the “Ratio 8(9)-EpETrE / 8,9-DiHETrE” value [2] was 6.69, the “Ratio 9(10)-EpOME / 9,10-DiHOME” value [2] was 1.10 and the “Ratio 10(11)-EpDPE / 10,11-DiHDPE” value [2] was 6.13. The “Ratio 11(12)-EpETE / 11,12-DiHETE” value [2] was 1.04, the “Ratio 11(12)-EpETrE / 11,12-DiHETrE” value [2] was 2.78 and the “Ratio 12(13)-EpOME / 12,13-DiHOME” value [2] was 1.36. For the same molecule, the “Ratio 13(14)-EpDPE / 13,14-DiHDPE” value [2] was 3.05, the “Ratio 14(15)-EpETE / 14,15-DiHETE” value [2] was 0.39 and the “Ratio 14(15)-EpETrE / 14,15-DiHETrE” value [2] was 4.24. For the same molecule, the “Ratio 16(17)-EpDPE / 16,17-DiHDPE” value [2] was 1.29, the “Ratio 17(18)-EpETE / 17,18-DiHETE” value [2] was 0.86 and the “Ratio 19(20)-EpDPE / 19,20-DiHDPE” value [2] was 1.63. The “total Di-hydroxyeicosanoid” value [2] was 322.82 nM, the “total Epoxyeicosanoid” value [2] was 1014.12 nM and the “total Ratio epoxy/dihydroxy eicosanoids” value [2] was 3.14.
In the case of CCCCCCCCCCCCNC(=O)NC12CC3CC(CC(C3)C1)C2 [ADU, N-Adamantyl-N′-dodecyl urea], the “activity as inhibitor of sEH” value (sEH) is reported as “particularly high activity on sEH”.
CC(=O)N1CCC(NC(=O)Nc2ccc(OC(F)(F)F)cc2)CC1 [TPAU] was tested, and the “voluntary movement in an open-field chamber (motor depressant effect)” value (Sprague-Dawley rats [3]) was “indistinguishable from baseline activity”.
OC(Cn1cncn1)(Cn1cncn1)c1ccc(F)cc1F [fluconazole] was tested, and the “antagonism of / interaction with rolipram-produced increase in thermal withdrawal latency” value (Sprague-Dawley rats [1]) was “Noncompetitive antagonism”.
In the case of picrotoxin, the “antagonism of / interaction with rolipram-produced increase in thermal withdrawal latency” value (Sprague-Dawley rats [1]) is reported as “partially blocked rolipram”, the “thermal withdrawal latency / pain related behavior, change from predrug baseline” value (Sprague-Dawley rats [1]; healthy rats, s.c., about 1 h after administration) is reported as “ineffective on its own in changing pain related behavior” and the “antagonism of the increase in thermal withdrawal latency produced by rolipram/AUDA” value (Sprague-Dawley rats [1]; picrotoxin 0.25 mg/kg s.c.) is reported as “effectively antagonized”. For the same molecule, the “antagonism of the increase in mechanical withdrawal threshold produced by rolipram/AUDA” value (Sprague-Dawley rats [4]) was “effectively antagonized”.
With CC(=O)CCCCn1c(=O)c2c(ncn2C)n(C)c1=O [Pentoxyphilline] the “8(9)-EpETE” value [2] was 1.27 nM, the “8(9)-EpETrE” value [2] was 6.41 nM and the “8,9-DiHETE” value [2] was 0.30 nM. For the same molecule, the “8,9-DiHETrE” value [2] was 0.54 nM, the “9(10)-EpOME” value [2] was 59.92 nM and the “9,10-DiHOME” value [2] was 34.24 nM. For the same molecule, the “10(11)-EpDPE” value [2] was 7.86 nM, the “10,11-DiHDPE” value [2] was 0.71 nM and the “11(12)-EpETE” value [2] was 0.80 nM. The “11(12)-EpETrE” value [2] was 10.60 nM, the “11,12-DiHETE” value [2] was 0.45 nM and the “11,12-DiHETrE” value [2] was 1.77 nM. The “12(13)-EpOME” value [2] was 87.05 nM, the “12,13-DiHOME” value [2] was 50.89 nM and the “13(14)-EpDPE” value [2] was 4.20 nM. For the same molecule, the “13,14-DiHDPE” value [2] was 0.79 nM, the “14(15)-EpETE” value [2] was 0.69 nM and the “14(15)-EpETrE” value [2] was 14.76 nM. The “14,15-DiHETE” value [2] was 1.06 nM, the “14,15-DiHETrE” value [2] was 1.73 nM and the “16(17)-EpDPE” value [2] was 5.07 nM. The “16,17-DiHDPE” value [2] was 2.20 nM, the “17(18)-EpETE” value [2] was 3.08 nM and the “17,18-DiHETE” value [2] was 2.81 nM. The “19(20)-EpDPE” value [2] was 12.04 nM, the “19,20-DiHDPE” value [2] was 6.00 nM and the “Ratio 8(9)-EpETE / 8,9-DiHETE” value [2] was 4.15. For the same molecule, the “Ratio 8(9)-EpETrE / 8,9-DiHETrE” value [2] was 11.91, the “Ratio 9(10)-EpOME / 9,10-DiHOME” value [2] was 1.75 and the “Ratio 10(11)-EpDPE / 10,11-DiHDPE” value [2] was 11.13. For the same molecule, the “Ratio 11(12)-EpETE / 11,12-DiHETE” value [2] was 1.79, the “Ratio 11(12)-EpETrE / 11,12-DiHETrE” value [2] was 6.00 and the “Ratio 12(13)-EpOME / 12,13-DiHOME” value [2] was 1.71. The “Ratio 13(14)-EpDPE / 13,14-DiHDPE” value [2] was 5.30, the “Ratio 14(15)-EpETE / 14,15-DiHETE” value [2] was 0.66 and the “Ratio 14(15)-EpETrE / 14,15-DiHETrE” value [2] was 8.52. The “Ratio 16(17)-EpDPE / 16,17-DiHDPE” value [2] was 2.30, the “Ratio 17(18)-EpETE / 17,18-DiHETE” value [2] was 1.10 and the “Ratio 19(20)-EpDPE / 19,20-DiHDPE” value [2] was 2.01. For the same molecule, the “total Di-hydroxyeicosanoid” value [2] was 423.15 nM, the “total Epoxyeicosanoid” value [2] was 497.36 nM and the “total Ratio epoxy/dihydroxy eicosanoids” value [2] was 1.18.
For CC(C)(C)NC(=O)[C@H]1CC[C@H]2[C@@H]3CC[C@H]4NC(=O)C=C[C@]4(C)[C@H]3CC[C@]12C [finasteride], the “antagonism of / interaction with rolipram-produced increase in thermal withdrawal latency” value (Sprague-Dawley rats [1]) was “competitive antagonism”.
With CCc1ccc2c(-c3cccc(Cl)c3)nc(=O)n(CC)c2n1 [YM976] the “8(9)-EpETE” value [2] was 2.74 nM, the “8(9)-EpETrE” value [2] was 13.59 nM and the “8,9-DiHETE” value [2] was 0.29 nM. The “8,9-DiHETrE” value [2] was 0.58 nM, the “9(10)-EpOME” value [2] was 147.05 nM and the “9,10-DiHOME” value [2] was 37.07 nM. For the same molecule, the “10(11)-EpDPE” value [2] was 20.16 nM, the “10,11-DiHDPE” value [2] was 0.82 nM and the “11(12)-EpETE” value [2] was 2.23 nM. For the same molecule, the “11(12)-EpETrE” value [2] was 22.80 nM, the “11,12-DiHETE” value [2] was 0.48 nM and the “11,12-DiHETrE” value [2] was 1.55 nM. The “12(13)-EpOME” value [2] was 159.31 nM, the “12,13-DiHOME” value [2] was 57.32 nM and the “13(14)-EpDPE” value [2] was 10.28 nM. For the same molecule, the “13,14-DiHDPE” value [2] was 0.81 nM, the “14(15)-EpETE” value [2] was 1.99 nM and the “14(15)-EpETrE” value [2] was 26.50 nM. The “14,15-DiHETE” value [2] was 1.19 nM, the “14,15-DiHETrE” value [2] was 1.84 nM and the “16(17)-EpDPE” value [2] was 10.41 nM. The “16,17-DiHDPE” value [2] was 2.22 nM, the “17(18)-EpETE” value [2] was 4.49 nM and the “17,18-DiHETE” value [2] was 2.95 nM. For the same molecule, the “19(20)-EpDPE” value [2] was 18.10 nM, the “19,20-DiHDPE” value [2] was 6.24 nM and the “Ratio 8(9)-EpETE / 8,9-DiHETE” value [2] was 9.62. The “Ratio 8(9)-EpETrE / 8,9-DiHETrE” value [2] was 23.44, the “Ratio 9(10)-EpOME / 9,10-DiHOME” value [2] was 3.97 and the “Ratio 10(11)-EpDPE / 10,11-DiHDPE” value [2] was 24.59. The “Ratio 11(12)-EpETE / 11,12-DiHETE” value [2] was 4.69, the “Ratio 11(12)-EpETrE / 11,12-DiHETrE” value [2] was 14.76 and the “Ratio 12(13)-EpOME / 12,13-DiHOME” value [2] was 2.78. For the same molecule, the “Ratio 13(14)-EpDPE / 13,14-DiHDPE” value [2] was 12.66, the “Ratio 14(15)-EpETE / 14,15-DiHETE” value [2] was 1.67 and the “Ratio 14(15)-EpETrE / 14,15-DiHETrE” value [2] was 14.43. For the same molecule, the “Ratio 16(17)-EpDPE / 16,17-DiHDPE” value [2] was 4.68, the “Ratio 17(18)-EpETE / 17,18-DiHETE” value [2] was 1.52 and the “Ratio 19(20)-EpDPE / 19,20-DiHDPE” value [2] was 2.90. The “total Di-hydroxyeicosanoid” value [2] was 423.59 nM, the “total Epoxyeicosanoid” value [2] was 535.16 nM and the “total Ratio epoxy/dihydroxy eicosanoids” value [2] was 1.26.
